What all share (format): cell-based
Assay [1] deals with A549 cells. As to the kind of experiment: Viability of A549 cells treated with compound 1 with TOPII drug VM26 or non-TOPII drug Taxol (WST-1). As to the method: A549 cells were cultured with DMEM and 10% FBS. The cells were treated with different concentrations of compound 1 with or without TOPII drug, VM26 (FIG. 10A) or non TOPII drug, Taxol® (paclitaxel) (Sigma, Israel) (FIG. 10B).

In assay [2] the test system is TOPIIα. In words: Inhibition of VM26-induced TOPIIα degradation by compound 1 in HeLa cells (immunoblot). Particulars: 50 μM or 100 μM compound 1 for 1 hr, then 100 μM VM26. As to the method: HeLA cells were cultured with DMEM and 10% FBS. The cells were treated for 1 hr with solvent (50% DMSO, 50% PEG400) or 50 μM or 100 μM of compound 1, then for the indicated time with 100 μM of VM26.
Then the cells were harvested, alkaline extracted and treated with S7 DNAse (Roche, Germany) to release TOPII from the DNA. The amount of TOPIIα was assayed by immunoblot with specific antibodies (Santa-Cruz).
For orientation: A western blot detects proteins with antibodies after separation by electrophoresis.

In assay [3] the target is T1, Ring1-Bmi1 (Homo sapiens, UniProt P35226+Q06587).
T1 construct: expressed in transfected cells; host or cells: HeLa
T1 sequence (Q06587 1-406): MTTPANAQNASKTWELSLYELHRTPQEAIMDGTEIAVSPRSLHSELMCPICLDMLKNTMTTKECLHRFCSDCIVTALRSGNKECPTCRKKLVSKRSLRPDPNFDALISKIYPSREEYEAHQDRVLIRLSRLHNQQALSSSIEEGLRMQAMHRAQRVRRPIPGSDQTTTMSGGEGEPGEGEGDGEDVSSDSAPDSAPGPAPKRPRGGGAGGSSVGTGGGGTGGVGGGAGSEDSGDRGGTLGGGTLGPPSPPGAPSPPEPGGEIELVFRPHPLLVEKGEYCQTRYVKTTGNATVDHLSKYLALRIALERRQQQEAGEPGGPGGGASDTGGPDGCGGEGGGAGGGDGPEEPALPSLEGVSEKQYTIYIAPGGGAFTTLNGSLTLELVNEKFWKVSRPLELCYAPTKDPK
T1 sequence (P35226 1-326): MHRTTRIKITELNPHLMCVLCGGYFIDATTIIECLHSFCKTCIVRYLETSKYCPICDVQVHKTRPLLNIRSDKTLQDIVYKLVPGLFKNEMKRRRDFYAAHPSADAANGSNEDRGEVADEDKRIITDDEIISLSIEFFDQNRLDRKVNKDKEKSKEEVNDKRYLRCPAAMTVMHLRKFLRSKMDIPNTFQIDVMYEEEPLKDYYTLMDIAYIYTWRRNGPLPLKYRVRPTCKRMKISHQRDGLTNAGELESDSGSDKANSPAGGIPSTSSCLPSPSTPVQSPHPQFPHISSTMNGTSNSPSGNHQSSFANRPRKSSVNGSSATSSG
In words: Ring1-Bmi1 ubiquitination activity in HeLa cells (Flag-Bmi1 immunoprecipitation, anti-HA immunoblot). To be noted: 100 μM compound 1, 6 hours. As to the method: HeLa cells were cultured with DMEM and 10% FBS. The cells were transfected with a plasmid encoding HA-ubiquitin, Bmi1-Flag and RING1A unless otherwise is indicated using Lipofectamine-2000 transfection reagent ((Invitrogen, CA, U.S.A.).
Twenty-four hours post-transfection the cells were treated for 6 hours with solvent (50% DMSO, 50% PEG400) or 100 μM compound 1 (FIG. 12).
The cells were harvested; Flag-Bmi1 was immunoprecipitated with anti-Flag antibodies (Sigma Israel). The amount of ubiquitinated Bmi1 was assayed by immunoblot with anti-HA antibodies (Roche, Germany).

For assay [4], the system named is A549, HeLa, MDA-MB-231, MDA-MB-468, HCT116 and Panc02.03 cells. As to the kind of experiment: LD50 of compound 1 in various cancer cells (WST-1). To be noted: various types of cancer cells, 72 hours post treatment, WST-1, Prism. As to the method: A549 cells (lung cancer) and HeLa cells ([…]) were cultured with DMEM and 10% FBS (FIG. 13A). MDA-MB-231 and MDA-MB-468 cells (breast cancer), HCT116 cells (colon cancer) and Panc02.03 cells (Pancreatic cancer) were cultured with RPMI and 10% FBS (FIG. 13B). The cells were treated with different concentrations of compound 1. Viability of the cells was tested seventy-two hours post treatment using WST-1 reagent (Roche, Germany). The LD50s were calculated using Prism software (Graphpad, Calif., U.S.A.).
On the technique in general: Formazan colour is commonly taken as a measure of viable cells.

On to `O=C1C(=Cc2cccnc2)C(=O)c2ccccc21` [compound 1], for which the “synergistic effect with Taxol (non-TOPII drug)” value in assay [1] (A549 cells, compound 1 with Taxol (paclitaxel), 72 hours post treatment) is “no synergistic effect”. For the same molecule, the “increase of the potency of VM26” value in assay [1] (A549 cells, compound 1 with VM26, 72 hours post treatment, WST-1) is 10 fold. The “synergistic effect with VM26 to reduce viability” value in assay [1] (A549 lung cancer cells) is recorded as “synergistic effect”. Further, in assay [2], the “drug induced degradation of TOPIIα” value is listed as “inhibits”. Besides, the Ring1-Bmi-1 ubiquitination activity entry in assay [3] is “significant inhibition”. Besides, the LD50 in assay [4] is 9 to 79 µM.
